From patent US9034866B2 (Genentech, Inc., priority 2012, dated 2015)
Read-outs that look alike come from different tables or passages of the source.

Experiments:
[1] = tested on: p52 (NF-kB2) nuclear translocation in HeLa cells; assay: p52 nuclear translocation assay (non-classical NF-kB signaling), high content imaging; type: cell-based; conditions: 100 ng/mL anti-lymphotoxin beta receptor antibody for 5 hours, read-out: p52 HeLa Transloc Assay (IC50)
Experimental: (§1) (2) A second set of cell assay are used to define the selectivity of NIK inhibitors toward inhibition of classical vs. non-classical NF-kB signaling and rely on quantification of the nuclear translocation of p52 (NF-kB2) and REL-A (p65) using high content cellular imaging. For the p52 (non-classical NF-kB signaling) nuclear translocation assay, HeLa cells are treated with different concentrations of compounds (0.2% DMSO final) in medium containing 10% fetal bovine serum and then stimulated with 100 ng/mL, of an anti-lymphotoxin beta receptor antibody (R&D Systems) for 5 hours. In the REL-A nuclear translocation assay, HeLa cells are incubated with compounds (0.2% DMSO final) for 4.5 hours in medium containing 10% fetal bovine serum before stimulating them with 10 ng/mL tumor necrosis factor (TNF)-α (R&D Systems) for 30 minutes. Cells are fixed with 4% paraformaldehyde, permeabilized by adding 0.1% Triton X-100 in phosphate buffered saline, and then are incubated with either 2 ug/mL anti-p52 antibody (Millipore) or 400 ng/mL anti-REL-A (p65) antibody (Santa Cruz Biotechnology). Finally, the cells are incubated with an Alexa488-labeled secondary antibody (Invitrogen) and DRAQ5 DNA stain (Biostatus). Imaging is carried out using an Opera reader (Perkin Elmer) and data are analyzed with the aid of Acapella software (Perkin Elmer). The p52 or REL-A translocation into the nucleus is quantified by the ratio of the nuclear to cytoplasmic signal intensity. […] The compounds in listed in Table 1 have the corresponding inhibitory value (IC50 in micromolar) for NIK p52 Translocation Assay as set forth in Table 2.

[2] = tested on: REL-A (p65) nuclear translocation in HeLa cells; assay: REL-A nuclear translocation assay (classical NF-kB signaling), high content imaging; type: cell-based; conditions: Homo sapiens, HeLa, compounds 4.5 hours, then 10 ng/mL TNF-α for 30 minutes, read-out: REL-A HeLa Transloc Assay (IC50)
Experimental: as §1
The compounds in listed in Table 1 has the corresponding inhibitory value (IC50 in micromolar) for NIK RelA Translocation Assay as set forth in Table 2.

[3] = target: nuclear factor-kappa B (NF-kB)-inducing kinase (NIK) (Homo sapiens (Human), UniProt Q99558); assay: NIK Enzyme Inhibition Assay (Transcreener ADP fluorescence polarization); type: biochemical; conditions: read-out: NIK ADP-FP (Ki uM)
In short: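 Baculovirus/insect-cell-expressed NIK (0.2-1 nM) incubated with compounds 1-3.5 h at 10 uM ATP. Buffer: 50 mM HEPES pH 7.2, 10 mM MgCl2, 2 mM DTT, 1% DMSO. ADP detected by Transcreener fluorescence polarization (ADP antibody, AlexaFluor 633 tracer) after EDTA quench.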

[4] = purified NIK 0.2-1 nM, 10 uM ATP, Morrison's quadratic equation

Sequence of nuclear factor-kappa B (NF-kB)-inducing kinase (NIK) (Q99558 whole entry): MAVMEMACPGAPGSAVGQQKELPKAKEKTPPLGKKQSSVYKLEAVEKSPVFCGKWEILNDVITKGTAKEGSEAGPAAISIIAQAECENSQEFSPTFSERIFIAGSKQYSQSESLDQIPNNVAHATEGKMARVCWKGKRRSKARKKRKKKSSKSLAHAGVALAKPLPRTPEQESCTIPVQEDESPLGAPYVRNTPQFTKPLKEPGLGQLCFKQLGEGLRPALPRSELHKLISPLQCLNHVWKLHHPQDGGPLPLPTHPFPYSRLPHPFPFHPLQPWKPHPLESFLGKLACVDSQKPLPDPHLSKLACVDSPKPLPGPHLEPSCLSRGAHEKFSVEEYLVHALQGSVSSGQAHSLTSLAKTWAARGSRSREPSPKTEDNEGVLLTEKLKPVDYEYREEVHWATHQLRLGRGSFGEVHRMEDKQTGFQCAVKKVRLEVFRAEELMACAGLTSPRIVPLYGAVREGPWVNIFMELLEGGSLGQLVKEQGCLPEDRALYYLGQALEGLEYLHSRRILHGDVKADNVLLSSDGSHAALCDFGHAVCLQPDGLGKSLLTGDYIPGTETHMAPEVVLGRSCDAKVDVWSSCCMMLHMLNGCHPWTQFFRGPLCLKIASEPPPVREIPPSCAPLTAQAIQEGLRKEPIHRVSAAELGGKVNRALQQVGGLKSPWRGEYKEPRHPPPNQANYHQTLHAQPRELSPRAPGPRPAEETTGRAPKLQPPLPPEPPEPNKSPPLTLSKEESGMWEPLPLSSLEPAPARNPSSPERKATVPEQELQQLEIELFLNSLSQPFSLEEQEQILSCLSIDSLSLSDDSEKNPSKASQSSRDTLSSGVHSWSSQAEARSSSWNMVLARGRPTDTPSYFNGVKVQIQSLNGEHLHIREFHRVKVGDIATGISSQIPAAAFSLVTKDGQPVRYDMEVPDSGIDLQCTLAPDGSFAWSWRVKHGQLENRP

| Compound | IC50 ([1]; Homo sapiens, HeLa, 5 h) [nM] | IC50 [2] [nM] | Ki [3] [µM] | Ki [3, 4] [µM] | IC50 [1] [nM] |
| --- | --- | --- | --- | --- | --- |
| CN1CC[C@@](O)(C#Cc2ccc3c(c2)-c2nc(C(N)=O)cn2C2CC3C2)C1=O | 1500 | 20000 | 0.0012 | – | – |
| Cc1cc([C@](C)(O)C#Cc2cc3c(cc2F)C2CC(C2)n2c-3nc(C(N)=O)c2-c2cnn(CC(C)(C)O)c2)no1 (racemic) | 1900 | > 20000 | – | 0.00071 | – |
| Cc1cc([C@](C)(O)C#Cc2ccc3c(c2)-c2nc(C(N)=O)c(C(F)(F)F)n2C2CC3C2)no1 | 511 | 15100 | 0.0005 | – | – |
| CNC(=O)c1c(C(N)=O)nc2n1CCOc1cc(F)c(C#CC(C)(O)c3ccccn3)cc1-2 (stereo not shown) [Example 180, 9-fluoro-10-[3-hydroxy-3-(2-pyridyl)but-1-ynyl]-N3-methyl-5,6-dihydroimi-dazo[1,2-d][1,4]benzoxazepine-2,3-dicarboxamide] | 870 | > 20000 | – | 0.0012 | – |
| Cc1cc([C@](C)(O)C#Cc2cc3c(cc2F)C2CC(C2)n2cc(C(N)=O)nc2-3)on1 | 675 | > 20000 | – | 0.0024 | – |
| CNC(=O)c1c(C(N)=O)nc2n1CCOc1ccc(C#C[C@@](C)(O)c3noc(C)n3)cc1-2 [Example 98, 9-[(R)-3-hydroxy-3-(5-methyl-[1,2,4]ox-adiazol-3-yl)-but-1-ynyl]-4,5-dihydro-6-oxa-1,3a-diaza-benzo[e]azulene-2,3-di-carboxylic acid 2-amide 3-methylamide] | 237 | 20000 | – | 0.002 | – |
| Cc1cc([C@](C)(O)C#Cc2ccc3c(c2)-c2nc(C(N)=O)sc2CCO3)no1 [Example 7, 9-[(R)-3-hydroxy-3-(5-methyl-isoxazol-3-yl)-but-1-ynyl]-4,5-dihydro-6-oxa-3-thia-1-aza-benzo[e]azulene-2-carboxylic acid amide] | 39.5 | 20000 | – | 0.0002 | – |
| Cc1nc([C@](C)(O)C#Cc2cc3c(cc2F)C2CC(C2)n2c-3nc(C(N)=O)c2C)no1 | 1100 | > 20000 | – | 0.0007 | – |
| Cc1cc([C@](C)(O)C#Cc2ccc3c(c2)-c2nc(C(N)=O)c(CN4CCOCC4)n2CCO3)no1 [Example 103, 9-[(R)-3-hydroxy-3-(5-methyl-isoxazol-3-yl)-but-1-ynyl]-3-morpholin-4-ylmeth-yl-4,5-dihydro-6-oxa-1,3a-diaza-ben-zo[e]azulene-2-carboxylic acid amide] | 104 | 20000 | – | 0.002 | – |
| Cc1cc([C@](C)(O)C#Cc2ccc3c(c2)-c2nc(C(N)=O)cn2CCO3)no1 [Example 8, 9-[(R)-3-Hydroxy-3-(5-methyl-isoxazol-3-yl)-but-1-ynyl]-4,5-dihydro-6-oxa-1,3a-diaza-benzo[e]azulene-2-carboxylic acid amide] | 672 | 20000 | – | 0.001 | – |
| CNC(=O)c1c(C(N)=O)nc2n1C1CC(C1)c1cc(F)c(C#CC(C)(C)O)cc1-2 (racemic) | 358 | > 20000 | – | 0.0022 | – |
| Cn1nccc1Cn1c(C(N)=O)nc2c1C1CC(C1)c1cc(F)c(C#CC(C)(C)O)cc1-2 [Example 391] | 36.8 | 20000 | – | 0.002 | – |
| CC(C)(O)C#Cc1cc2c(cc1F)OCCn1c-2nc(C(N)=O)c1-c1nc(-c2cccnc2)n[nH]1 [Example 172] | 1200 | > 20000 | – | 0.0004 | – |
| CC(C)(O)C#Cc1cc2c(cc1F)C1CC(C1)n1c-2nc(C(N)=O)c1C(F)(F)F | 2600 | > 20000 | – | 0.0095 | – |
| CNC(=O)c1c(C(N)=O)nc2n1CCOc1cc(F)c(C#C[C@@](C)(O)c3cc(C)on3)cc1-2 [Example 99, 8-fluoro-9-[(R)-3-hydroxy-3-(5-methyl-isoxazol-3-yl)-but-1-ynyl]-4,5-dihydro-6-oxa-1,3a-diaza-benzo[e]azulene-2,3-di-carboxylic acid 2-amide 3-methylamide] | 62.5 | 20000 | 0.001 | – | – |
| CC(C)(O)C#Cc1ccc2c(c1)-c1nc(C(N)=O)c(-c3nc(C4CC4)n[nH]3)n1CCO2 (racemic) | 594 | > 20000 | – | 0.0024 | – |
| CN1CCC(O)(C#Cc2cc3c(cc2F)OCCc2sc(C(N)=O)nc2-3)C1=O (stereo not shown) | 450 | > 20000 | – | 0.00053 | – |
| Cc1nc([C@](C)(O)C#Cc2cc3c(cc2F)OC[C@H](N(C)C)c2sc(C(N)=O)nc2-3)no1 [Example 258, (S)-4-(dimethylamino)-8-fluoro-9-[3-(R)-hydroxy-3-(5-methyl-1,2,4-oxadiazol-3-yl)but-1-ynyl]-4,5-dihydro-[1]benzoxe-pino[5,4-d]thiazole-2-carboxamide] | 2900 | > 20000 | – | – | 2000 |
| CN1CC[C@@](O)(C#Cc2ccc3c(c2)-c2nc(C(N)=O)c(C(=O)NC4CCOCC4)n2CCO3)C1=O [Example 422, 9-fluoro-10-(3-hydroxy-3-methyl-but-1-ynyl)-3-(1-hydroxy-1-methyl-ethyl)-5,6,7,12-tetrahydro-5,7-methanobenzo[c]imidazo[1,2-a]azepine-2-carboxamide] | 406 | > 20000 | – | – | – |
| CN1CC[C@@](O)(C#Cc2ccc3c(c2)-c2nc(C(N)=O)sc2C(F)(F)CO3)C1=O [Example 406, 10-[(3R)-3-hydroxy-3-(5-methylisoxazol-3-yl)but-1-ynyl]-N3,N3-dimethyl-5,6,7,12-tetrahydro-5,7-methanobenzo[c]imidazo[1,2-a]azepine-2,3-dicarboxamide] | 76.1 | > 20000 | – | – | – |
| NC(=O)c1cn2c(n1)-c1cc(C#CC3(O)CCC3)c(F)cc1C1CC2C1 [Example 364, 9-fluoro-10-[2-(1-hydroxycyclobutyl)ethy-nyl]-5,6,7,12-tetrahydro-5,7-methano-benzo[c]imidazo[1,2-a]azepine-2-carboxamide] | 985 | > 20000 | – | – | – |
| CN1CC[C@@](O)(C#Cc2cc3c(cc2F)C2CC(C2)n2c-3nc(C(N)=O)c2C2CC2)C1=O [Example 333, 3-cyclopropyl-9-fluoro-10-[2-[(3R)-3-hy-droxy-1-methyl-2-oxo-pyrrolidin-3-yl]ethynyl]-5,6,7,12-tetrahydro-5,7-meth-anobenzo[c]imidazo[1,2-a]azepine-2-carboxamide] | 2200 | > 20000 | – | – | – |
| CC(C)(O)Cn1cc(-c2c(C(N)=O)nc3n2C2CC(C2)c2ccc(C#CC4(O)CCCC4)cc2-3)cn1 [Example 289] | 2700 | > 20000 | – | – | – |
| Cc1c(C(N)=O)nc2n1C1CC(C1)c1cc(F)c(C#C[C@]3(O)CCN(C)C3=O)cc1-2 [Example 331, 9-fluoro-10-[2-[(3R)-3-hydroxy-1-meth-yl-2-oxo-pyrrolidin-3-yl]ethynyl]-3-meth-yl-5,6,7,12-tetrahydro-5,7-methano-benzo[c]imidazo[1,2-a]azepine-2-carboxamide] | 1000 | > 20000 | – | – | – |
| Cc1cc([C@](C)(O)C#Cc2cc3c(cc2F)OCCc2sc(C(N)=O)nc2-3)no1 [Example 39] | 38 | 20000 | – | – | – |
| COC[C@](C)(O)C#Cc1ccc2c(c1)-c1nc(C(N)=O)sc1[C@H](F)CO2 | 682 | 15300 | – | – | – |
| CC(C)(O)C#Cc1cc2c(cc1F)C1CC(C1)c1c-2nc(C(N)=O)n1C(F)F [Example 411, 9-fluoro-10-(3-hydroxy-3-methyl-but-1-ynyl)-3-(pyrrolidin-1-ylmethyl)-5,6,7,12-tetrahydro-5,7-methanobenzo[c]imidazo[1,2-a]azepine-2-carboxamide] | 73.2 | 20000 | – | – | – |
| CNC(=O)c1c(C(N)=O)nc2n1CCOc1cc(F)c(C#CC3(O)CCC3)cc1-2 [Example 362, 9-fluoro-10-[2-(1-hydroxycyclobutyl)ethy-nyl]-N3-methyl-5,6-dihydroimidazo[1,2-d][1,4]benzoxazepine-2,3-dicarbox-amide] | 143 | > 20000 | – | – | – |
| CC(=O)N(Cc1c(C(N)=O)nc2n1C1CC(C1)c1cc(F)c(C#CC(C)(C)O)cc1-2)C(C)C [Example 371, 3-[[acetyl(isopropyl)amino]methyl]-9-fluoro-10-(3-hydroxy-3-methyl-but-1-ynyl)-5,6,7,12-tetrahydro-5,7-methano-benzo[c]imidazo[1,2-a]azepine-2-carboxamide] | 1900 | > 20000 | – | – | – |
